The values that follow come from BindingDB's records for doi:10.1016/j.bmcl.2008.01.067 (Spot-Ea3857, 2008).

This assay concerns the target Peroxisome proliferator-activated receptor gamma (Homo sapiens) (UniProt P37231). The assay is described as follows: Agonist activity at human PPARgamma at 100 uM by GAL4 transactivation assay relative to Rosiglitazone.

As for `CCO[C@@H](Cc1ccc(OCCc2ccc(OS(C)(=O)=O)cc2)cc1)C(=O)O` [(2S)-2-ethoxy-3-(4-{2-[4-(methanesulfonyloxy)phenyl]ethoxy}phenyl)propanoic acid], the EC50 came to 0.037 µM. Turning to `COC(=O)C(Cc1ccc(OCCN2CCC(C)(C)c3cc(C(N=O)c4ccccc4)ccc32)cc1)C(=O)OC` (centres undefined) [dimethyl 2-(4-(2-(6-((hydroxyimino)(phenyl)methyl)-4,4-dimethyl-3,4-dihydroquinolin-1(2H)-yl)ethoxy)benzyl)malonate], the EC50 worked out at 0.195 µM.

For the compound `COC(=O)C(Cc1ccc(OCCN2CCC(C)(C)c3cc(C(=O)c4ccccc4)ccc32)cc1)C(=O)OC` [dimethyl 2-(4-(2-(6-benzoyl-4,4-dimethyl-3,4-dihydroquinolin-1(2H)-yl)ethoxy)benzyl)malonate], a half-maximal effect (EC50) was put at 0.152 µM. With `CCOC(=O)C(Cc1ccc(OCCN2CCC(C)(C)c3cc(C(N=O)c4ccccc4)ccc32)cc1)OCC` (centres undefined) [ethyl 2-ethoxy-3-(4-(2-(6-((hydroxyimino)(phenyl)methyl)-4,4-dimethyl-3,4-dihydroquinolin-1(2H)-yl)ethoxy)phenyl)propanoate] the figure was 0.048 µM.

A word on the EC50: it is the concentration at which the effect is half-maximal. Lower therefore signals greater potency.
